This note sets out measurements from paper PMC7782552, “Activation of mitochondrial TUFM ameliorates metabolic dysregulation through coordinating autophagy induction” (Communications Biology, 2021).

This experiment addresses T1, TUFM (mitochondrial elongation factor Tu) (Mus musculus, UniProt Q8BFR5).
T1 construct: endogenous protein in 3T3-L1 cell lysate
As to the kind of experiment: DARTS (pronase protection) immunoblot, dose-dependent, and DARTS LC-MS/MS in 3T3-L1 lysate. Format: biochemical. In general terms: In western blotting, separated proteins are transferred to a membrane and probed.

As a reminder, the EC50 is the concentration giving half of the maximal effect. High values mean a less potent agent, low ones a more potent agent. `COc1ccc(-c2oc3cc(O)cc(O)c3c(=O)c2O)cc1` [Kaem, kaempferide] had an EC50 of 14.4 µM.
